The supplement of paper PMC10307832

Legend:
Assay in all cases: relative viability (nuclei count vs DMSO), 5 days (fraction); higher = more cells survive
[1] = compound: Cn1nnc2c(C(N)=O)ncn2c1=O [Temozolomide]
Method in brief: (§1)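 Cells of lung cancer lines were placed in 1536-well plates and kept overnight at 37 °C. Pinning then delivered five library-drug doses (not always all listed), spaced by √10, onto plates anchored with vehicle, and the cells were left 5 days without changing medium. One step fixed, permeabilised and stained them with Hoechst, and MetaXpress counted nuclei in 4× images. Viability, as a median over plates, is treated-well nuclei divided by vehicle-well nuclei, with acceptance only at control CV below 25% and at least one doubling.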

[2] = compound: C[C@@H](C(=O)N[C@@H](C1CCCCC1)C(=O)N2CCC[C@H]2C(=O)N[C@@H]3[C@@H](CC4=CC=CC=C34)OCC#CC#CCO[C@@H]5CC6=CC=CC=C6[C@@H]5NC(=O)[C@@H]7CCCN7C(=O)[C@H](C8CCCCC8)NC(=O)[C@H](C)NC)NC [AZD5582]
Method in brief: as §1

[3] = compound: C[C@@H](C(=O)N[C@@H](C1CCCCC1)C(=O)N2CCC[C@H]2C(=O)N[C@@H]3[C@@H](CC4=CC=CC=C34)OCC#CC#CCO[C@@H]5CC6=CC=CC=C6[C@@H]5NC(=O)[C@@H]7CCCN7C(=O)[C@H](C8CCCCC8)NC(=O)[C@H](C)NC)NC [AZD5582] + COc1cc2c(Oc3ccc(NC(=O)C4(C(=O)Nc5ccc(F)cc5)CC4)cc3F)ccnc2cc1OCCCN1CCOCC1 [Foretinib] (partner 0.25 µM)
Method in brief: (§2)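 A single step with final 0.05% Triton X-100, 1% formaldehyde and 1 ug/ml Hoechst fixed the cells and stained nuclei 5 days after treatment. Lung cancer cell lines in 1536-well plates had been treated by pin tool the day after seeding with one drug alone or a fixed anchor-drug dose plus five library-drug doses (not always all listed) in √10 steps, and nuclei were counted on 4× images. Relative viability is the ratio of nuclei in treated wells to nuclei in vehicle wells, taken as the median of duplicate plates.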

[4] = compound: C[C@@H](C(=O)N[C@@H](C1CCCCC1)C(=O)N2CCC[C@H]2C(=O)N[C@@H]3[C@@H](CC4=CC=CC=C34)OCC#CC#CCO[C@@H]5CC6=CC=CC=C6[C@@H]5NC(=O)[C@@H]7CCCN7C(=O)[C@H](C8CCCCC8)NC(=O)[C@H](C)NC)NC [AZD5582] + CC1(C)CCC(c2ccc(Cl)cc2)=C(CN2CCN(c3ccc(C(=O)NS(=O)(=O)c4ccc(N[C@H](CCN5CCOCC5)CSc5ccccc5)c(S(=O)(=O)C(F)(F)F)c4)cc3)CC2)C1 [Navitoclax] (partner 0.5 µM)
Method in brief: as §2

Cell Line | relative viability ([1]; 0.2 µM) | relative viability ([1]; 0.6325 µM) | relative viability ([1]; 2 µM) | relative viability ([1]; 6.325 µM) | relative viability ([1]; 20 µM) | relative viability ([2]; 0.001581 µM) | relative viability ([2]; 0.005 µM) | relative viability ([2]; 0.01581 µM) | relative viability ([2]; 0.05 µM) | relative viability ([3]; first compound 0.001581 µM) | relative viability ([3]; first compound 0.005 µM) | relative viability ([3]; first compound 0.01581 µM) | relative viability ([3]; first compound 0.05 µM) | relative viability ([4]; first compound 0.001581 µM) | relative viability ([4]; first compound 0.005 µM) | relative viability ([4]; first compound 0.01581 µM) | relative viability ([4]; first compound 0.05 µM)
LU99A | 1.06 | 0.946 | 1.03 | 0.97 | 1.03 | 1.07 | 1.02 | 0.954 | 1.11 | 0.871 | 0.948 | 0.886 | 1.03 | 0.882 | 0.998 | 0.805 | 0.976
LXF-289 | 1.04 | 0.959 | 1.01 | 1.03 | 0.892 | 0.958 | 1.01 | 0.968 | 1 | 0.941 | 0.944 | 1.03 | 0.977 | 0.948 | 0.935 | 0.919 | 0.934
NCI-H23 | 1.2 | 1.03 | 0.994 | 0.909 | 0.993 | 0.782 | 0.848 | 0.477 | 0.519 | 0.762 | 0.872 | 0.787 | 0.952 | 0.594 | 0.512 | 0.721 | 0.778
NCI-H322M | – | 0.931 | 1 | 0.957 | 0.577 | 1.02 | 1.15 | 0.938 | 1.03 | 1.07 | 1.06 | – | 1.29 | 1.15 | 1.32 | 1.14 | 1.4
NCI-H441 | 1.25 | 1.06 | 1.29 | 0.997 | 1.15 | 0.77 | 0.954 | 0.869 | 0.982 | 0.847 | 1.03 | – | 0.883 | 0.639 | 0.543 | 0.453 | 0.518
NCI-H460 | 1.02 | 0.998 | 1 | 1.03 | 1.1 | 0.958 | 0.991 | 0.965 | 1.1 | 0.916 | 1.03 | 0.952 | 0.97 | 1.08 | 1.03 | 1.06 | 1.03
NCI-H520 | 1.06 | 0.999 | 1.13 | 0.981 | 0.97 | 0.955 | 1.05 | 0.947 | 1.1 | 0.651 | 0.777 | 0.81 | 0.697 | 1.07 | 1.15 | 1.1 | 1.15
NCI-H596 | 0.932 | 0.953 | 1.01 | 0.925 | 0.959 | 0.84 | – | 0.999 | 0.358 | – | – | 1.19 | 0.279 | 0.811 | 0.581 | 1.16 | 0.332
NCI-H647 | 1 | 1.01 | 0.906 | 0.684 | 0.265 | 0.904 | 0.971 | 0.865 | 0.957 | 1.08 | 1.16 | 1.1 | 1.21 | 1.02 | 1.09 | 0.919 | 1.27
NCI-H727 | 0.83 | 0.923 | 1.13 | 0.798 | 0.805 | 1.02 | 1.01 | 0.858 | 0.979 | 0.867 | 1.03 | 1.01 | 0.825 | 0.409 | 0.426 | 0.366 | 0.483
NCI-H838 | 0.948 | 1.02 | 1.02 | 0.928 | 0.986 | 0.895 | 1.09 | 0.785 | 0.975 | 0.985 | 1.19 | – | 1.06 | 1.09 | 1.2 | 1.05 | 1.18
NCI-H1299 | 1.03 | 1.04 | 1.07 | 1.03 | 1.03 | 1 | 1.02 | 1 | 0.991 | 1.05 | 1.11 | 1.04 | 1.03 | 1 | 1.07 | 1.08 | 1.04
NCI-H1355 | 1.01 | 0.985 | 1.06 | 0.947 | 0.982 | 0.902 | 1.01 | 0.771 | 0.823 | 0.894 | 0.881 | 0.938 | 0.705 | 0.926 | 0.951 | 0.954 | 1.01
NCI-H1395 | 1 | 0.96 | 0.906 | 0.745 | 0.867 | 0.866 | 1 | – | 0.988 | 0.979 | 1.14 | 1.04 | 1.14 | 1.02 | 1.16 | – | 1.49
NCI-H1437 | 0.998 | 1.01 | 0.997 | 1.04 | 1.02 | 0.915 | 1 | 0.979 | 0.983 | 1.17 | 1.22 | 1.24 | 1.16 | 1.07 | 1.09 | 1.05 | 1.04
NCI-H1650 | 0.955 | 0.938 | 0.933 | 0.952 | 0.773 | 0.87 | 1.05 | 0.899 | 0.759 | 0.971 | 1.33 | 1.27 | 0.889 | 1.07 | 1.04 | 1.23 | 1.17
NCI-H1651 | 0.983 | 0.997 | 0.984 | 0.997 | 0.993 | 0.932 | 1.01 | 0.952 | 1.13 | 0.714 | 0.883 | – | 1.16 | 0.981 | 1 | 1.21 | 1.14
NCI-H1666 | 0.92 | 0.994 | 0.906 | 0.751 | 0.76 | 0.886 | 0.953 | 0.971 | 0.94 | 0.786 | 1.02 | 0.953 | 0.907 | 0.823 | 0.859 | 1.11 | 0.837
